Results reported in US9585875B2, “TRPM8 antagonists” (Dompé S.P.A., priority 2011, dated 2017).
Values belong to the compound of their own block, whether it stands above or below them.

Tests used:
TRPM8 [1] = molecular target: T1, TRPM8 (Homo sapiens, UniProt Q7Z2W7); assay: HTS cell-based Ca2+ mobilization assay (FLIPR TETRA) in HEK293/hTRPM8 cells, agonist Cooling Agent 10; parameters: expressed in transfected cells; details: HEK293/hTRPM8, Cooling Agent 10 at EC80
Text: A functional cell-based assay for the identification of TRPM8 receptor antagonists, optimised to allow high throughput screening at FLIPR^TETRA, was developed in HEK293 cells by stable pure clone selection and functional characterization with a fluorescent calcium sensitive dye.
TRPM8 was cloned into the multiple cloning site of pcDNA3 mammalian expression vector; the obtained construct pcDNA3/hTRPM8 was fully sequence verified and used for the transfection of HEK293 cell line. HEK293 cells stably transfected with TRPM8 gene were maintained in Minimum essential medium. The cells were transfected with the pcDNA3/hTRPM8 vector by electroporation and then selected with medium containing 0.8 mg/ml G418 for 10-15 days.
The following commercial compounds were used as ligands:
Activator: Cooling Agent 10 (Takasago CAS N. 87061-04-9)
Blocker: Capsazepine (SIGMA cat #D_5879)
The experimental activities were performed using FLIPR^TETRA instruments.
HEK293 cells stably transfected with TRPM8 gene were maintained in Minimum essential medium.
The TRPM8 cell line was analysed for the response to a library of compounds using a Ca^2+ mobilization-dependent fluorescence signal in 384 wells microtiter plate format. The analysis was performed using the FLIPR^TETRA (MDC) with the ICCD Camera.
The execution of the assay involved the use of three microtiter plates:
1. Assay plate, containing cells loaded with dye and prepared as follows:
Cells were seeded at 15000 c/well in Poly-D-Lysine coated 384 wells Microtiter Plates in complete medium (25 μl/well).
24 h after seeding, the cell plates were washed with Tyrode assay buffer by the Microplate Washer and 10 μL of Tyrode assay buffer was left in each well.
Cells were then loaded with 10 μL/well of the Fluo-4 NW dye solution by CyBi®-Well pipettor. Each bottle of Fluo4-NW dye (Molecular Probes cat. #F36206, component A) was re-suspended in 8 mL of Tyrode assay buffer and supplemented with 100 μL of water-soluble probenecid (MolecularProbes cat.#F36206, component B).
Dye loaded cell plates were incubated for 1 h at room temperature.
2. Compound Dilution Plate (FIG. 1), containing diluted test compounds, formulated as follows: […]
Column 1: wells containing Assay Buffer plus DMSO 0.5% final
Columns 3-22: wells containing Assay Buffer plus 0.5% DMSO final. To these wells the compounds to be tested were added at 3× concentration.
Column 23: alternating wells of Max Signal Control in second injection (Assay buffer) and Min Signal Control in second injection (Antagonist Capsazepine IC100, 50 μM) in Assay buffer plus 0.5% DMSO final;
Column 24: wells containing Capsazepine (Antagonist) at 8 concentrations in duplicate at final concentrations of 50 μM, 25 μM, 6.25 μM, 3.15 μM, 1.56 μM, 780 nM, […] in Assay buffer plus 0.5% DMSO final.
3. Activator Plate (FIG. 2), containing agonist Cooling Agent 10 at EC80, formulated as follows:
Column 1: Cooling Agent 10 (Agonist) at 8 concentrations dose response in duplicate at final concentrations of 100 μM, 31.6 μM, 10 μM, 3.16 μM, 1 μM, 316 nM, 100 nM, 31.6 nM in Assay buffer;
Columns 2-24: Cooling Agent 10 (Agonist) at EC80 (3 fold concentrated, 20 μM final) in Assay buffer.
The test was carried out according to a procedure comprising the following steps:
1. The samples contained in the wells of the Compound Plate were added to the corresponding wells of the Assay Plate by the FLIPR^TETRA, thus resulting in the addition in Columns 3-22 of the test compounds at 3× concentration to the cells of the assay plates. No mixing was performed in the assay wells and the signal of the emitted fluorescence was recorded for 300 seconds. 2. The samples contained in the wells of the Activator Plate were added to the corresponding wells of the Assay Plate by the FLIPR^TETRA, thus resulting in the addition in Columns 3-22 of the Assay Plate of the agonist compound in addition to the test compounds. The signal of the emitted fluorescence was recorded for 180 seconds.

Male Wistar rats [2] = assay: Chronic constriction injury model, mechanical allodynia (Dynamic Plantar Aesthesiometer); type: in vivo, rat
Protocol: (§1) Male Wistar rats (220-250 g, Harlan Italy) were used (n=60). Animals were housed in a room with controlled temperature (22±1° C.), humidity (60±10%) and light (12 h per day) for at least a week before being used. Rats were randomly divided into sham, control and treatment groups; ten animals per group were used. All animal experiments were complied with the Italian (D.L. no.116 of Jan. 27, 1992) and associated guidelines in the European Communities Council (Directive of Nov. 24, 1986, 86/609/ECC).
(§2) Antiallodynic effects were assessed at 1 and 3 h post dose. Control animals received vehicle alone (0.5 ml/iv/rat; 10% solutol-NMP and 90% PBS).
(§3) Neuropathic pain behavior was induced by ligation of the sciatic nerve according to the method described by Bennett and Xie [Bennett G. J. and Xie Y. K. A peripheral mononeuropathy in rat that produces disorders of pain sensation like those seen in man, Pain, (1988) 33:87-107]. Briefly, rats were anaesthetized (100 mg/kg ketamine and 10 mg/kg xylazine i.p.) and the left sciatic nerve was exposed at the level of the thigh by blunt dissection through the biceps femoris. Proximal to the sciatic's trifurcation, about 12 mm of nerve was freed of adhering tissue and four ligatures were loosely tied around it with about 1 mm spacing so that the epineural circulation was preserved. The length of nerve thus affected was 6-8 mm long. The animals were allowed to recover and used the day after the surgery. Sham animals represent rats operated but not ligated.
To assess for changes in sensation or in the development of mechanical allodynia, sensitivity to tactile stimulation was measured using the Dynamic Plantar Aesthesiometer (DPA, Ugo Basile, Italy). Ligated animals were placed in a chamber with a mesh metal floor covered by a plastic dome that enabled the animal to walk freely, but not to jump. The mechanical stimulus was then delivered in the mid-plantar skin of the hind paw. The cut-off was fixed at 50 g, while the increasing force rate (ramp duration) was settled at 20 sec. […]

Male Wistar rats [3] = assay: Chronic constriction injury model, cold allodynia (acetone); type: in vivo, rat
Protocol: as §1, §2, §3
Cold sensitivity was measured as the number of foot withdrawal responses after application of acetone to the dorsal surface of the paw. A drop of acetone (15-20° C.) was applied to the dorsal surface of the ligated paw with a syringe connected to a thin polyethylene tube while the rats were standing on a metal mesh. A brisk foot withdrawal response, after the spread of acetone over the dorsal surface of the paw, was considered as a sign of cold allodynia. Basal response was measured on the days before treatment (2nd, 6th and 13th). […]

TRPV1 = TRPV1 (Homo sapiens, UniProt Q8NER1); assay: Calcium influx counterassay, agonist capsaicin; type: cell-based; details: 0.1 μM capsaicin = 100%, read-out: Normalized % inhibition (TRPV1)
Protocol: In order to address more specifically the potential selectivity issues, a counterassay was carried out for 10, 45 and 118 against TRPV1 and TRPV4 ion channels, both involved in the nociception (Jhaveri M D, et al 2005. Eur. J. Neurosci. 22 (2): 361-70, Brierley S M et al, 2008, Gastroenterology. 2008 June; 134(7):2059-69. ). The ability of each test compound to act as an antagonist of TRPV1 was evaluated with a calcium influx assay.

TRPV4 = TRPV4 (Homo sapiens, UniProt Q9HBA0); assay: Calcium influx counterassay, agonist GSK1016790A; type: cell-based; details: 10 μM GSK1016790A = 100%, read-out: Normalized % inhibition (TRPV4)
Protocol: In parallel, the ability of each test compound to act as an antagonist of TRPV4 was evaluated with a calcium influx assay.

Log D = type: physicochemical
TRPM8 [4] = molecular target: T1, TRPM8
Text: Values were considered significant if the test compound mean was three or more standard deviations away from the positive control agonist mean.

[5] = 10 mg/kg i.v., day 7, 1 hour post-dose
[6] = day 14 after surgery, 1 h post-dose (Compound 118: 10 mg/kg i.v.)
[7] = 10 mg/kg i.v., day 7 after nerve injury, 1 hour post-dose

T1 sequence (Q7Z2W7 whole entry): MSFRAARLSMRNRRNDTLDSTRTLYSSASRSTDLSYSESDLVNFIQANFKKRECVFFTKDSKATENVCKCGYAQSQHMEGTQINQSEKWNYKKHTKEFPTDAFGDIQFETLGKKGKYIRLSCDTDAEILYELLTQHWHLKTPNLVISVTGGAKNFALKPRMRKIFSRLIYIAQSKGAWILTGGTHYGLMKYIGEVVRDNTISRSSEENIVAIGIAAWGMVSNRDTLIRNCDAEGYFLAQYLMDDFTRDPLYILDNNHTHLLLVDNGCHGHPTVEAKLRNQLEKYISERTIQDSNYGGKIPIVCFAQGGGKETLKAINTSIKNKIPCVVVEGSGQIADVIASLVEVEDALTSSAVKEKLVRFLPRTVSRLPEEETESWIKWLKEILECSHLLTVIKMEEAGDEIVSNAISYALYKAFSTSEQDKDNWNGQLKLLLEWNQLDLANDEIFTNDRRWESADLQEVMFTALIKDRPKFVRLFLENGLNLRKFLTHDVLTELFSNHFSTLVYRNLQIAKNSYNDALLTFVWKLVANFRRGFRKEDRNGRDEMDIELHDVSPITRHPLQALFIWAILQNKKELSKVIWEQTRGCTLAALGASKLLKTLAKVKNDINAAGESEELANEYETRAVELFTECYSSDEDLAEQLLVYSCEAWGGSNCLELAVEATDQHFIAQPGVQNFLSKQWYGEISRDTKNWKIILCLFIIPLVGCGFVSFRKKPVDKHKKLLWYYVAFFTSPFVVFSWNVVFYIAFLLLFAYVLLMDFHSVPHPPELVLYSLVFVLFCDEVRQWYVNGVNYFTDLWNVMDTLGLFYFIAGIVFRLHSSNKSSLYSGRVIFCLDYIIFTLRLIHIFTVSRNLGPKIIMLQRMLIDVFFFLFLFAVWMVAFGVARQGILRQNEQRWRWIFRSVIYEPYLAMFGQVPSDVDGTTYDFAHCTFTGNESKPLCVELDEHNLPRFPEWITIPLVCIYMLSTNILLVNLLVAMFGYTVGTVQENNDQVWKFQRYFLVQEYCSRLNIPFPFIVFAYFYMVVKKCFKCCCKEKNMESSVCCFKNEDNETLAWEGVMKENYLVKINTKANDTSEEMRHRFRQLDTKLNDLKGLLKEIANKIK
Sequence of TRPV4 (Q9HBA0 whole entry, species assumed): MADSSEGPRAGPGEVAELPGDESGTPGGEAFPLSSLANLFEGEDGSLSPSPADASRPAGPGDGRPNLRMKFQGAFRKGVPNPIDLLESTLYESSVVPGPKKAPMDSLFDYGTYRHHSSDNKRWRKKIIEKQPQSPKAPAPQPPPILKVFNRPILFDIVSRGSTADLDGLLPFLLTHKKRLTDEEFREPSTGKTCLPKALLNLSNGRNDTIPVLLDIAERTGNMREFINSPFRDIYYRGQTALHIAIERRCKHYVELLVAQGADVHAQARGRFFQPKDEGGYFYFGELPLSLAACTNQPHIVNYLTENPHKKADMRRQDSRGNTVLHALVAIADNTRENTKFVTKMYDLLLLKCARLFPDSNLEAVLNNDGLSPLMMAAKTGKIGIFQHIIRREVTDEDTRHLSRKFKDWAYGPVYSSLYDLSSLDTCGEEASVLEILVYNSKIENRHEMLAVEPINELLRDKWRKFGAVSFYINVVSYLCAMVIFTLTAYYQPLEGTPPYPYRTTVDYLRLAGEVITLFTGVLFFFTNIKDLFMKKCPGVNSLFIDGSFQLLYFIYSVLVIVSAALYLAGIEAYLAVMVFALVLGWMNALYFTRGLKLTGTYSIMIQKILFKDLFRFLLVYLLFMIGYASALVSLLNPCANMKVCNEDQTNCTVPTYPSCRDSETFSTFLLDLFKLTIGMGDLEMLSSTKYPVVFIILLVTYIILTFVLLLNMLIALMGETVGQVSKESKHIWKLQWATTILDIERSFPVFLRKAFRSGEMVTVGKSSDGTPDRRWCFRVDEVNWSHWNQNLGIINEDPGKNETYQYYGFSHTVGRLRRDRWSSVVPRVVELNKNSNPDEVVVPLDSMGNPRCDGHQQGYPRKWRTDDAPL
Sequence of TRPV1 (Q8NER1 whole entry, species assumed): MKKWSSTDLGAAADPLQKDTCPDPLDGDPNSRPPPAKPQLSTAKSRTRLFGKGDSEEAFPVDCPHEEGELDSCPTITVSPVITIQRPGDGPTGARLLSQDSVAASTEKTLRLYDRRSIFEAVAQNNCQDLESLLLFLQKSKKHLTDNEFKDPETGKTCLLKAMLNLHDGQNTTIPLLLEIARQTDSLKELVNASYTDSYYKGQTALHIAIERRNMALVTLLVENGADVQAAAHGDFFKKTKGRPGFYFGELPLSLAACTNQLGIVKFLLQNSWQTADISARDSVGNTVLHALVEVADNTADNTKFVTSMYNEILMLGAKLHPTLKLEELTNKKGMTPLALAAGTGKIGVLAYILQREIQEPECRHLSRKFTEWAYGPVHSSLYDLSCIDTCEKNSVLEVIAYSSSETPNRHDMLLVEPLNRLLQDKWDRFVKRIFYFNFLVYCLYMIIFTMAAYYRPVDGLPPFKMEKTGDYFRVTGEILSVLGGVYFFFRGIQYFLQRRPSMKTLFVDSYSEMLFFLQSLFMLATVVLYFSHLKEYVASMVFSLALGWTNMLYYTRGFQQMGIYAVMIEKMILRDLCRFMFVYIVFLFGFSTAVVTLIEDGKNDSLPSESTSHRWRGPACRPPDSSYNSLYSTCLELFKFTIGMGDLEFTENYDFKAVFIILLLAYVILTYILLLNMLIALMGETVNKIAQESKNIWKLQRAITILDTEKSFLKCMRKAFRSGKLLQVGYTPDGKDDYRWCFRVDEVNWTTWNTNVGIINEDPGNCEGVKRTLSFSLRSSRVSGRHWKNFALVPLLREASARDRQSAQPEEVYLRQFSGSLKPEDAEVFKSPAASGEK

- IC50 (TRPM8 [1]): < 10 µM
SMILES: O=C(O)c1sc(-c2ccc(Cl)cc2)nc1OCc1ccc(Cl)cc1 [Compound 84, sodium 4-(4-chlorobenzyloxy)-2-(4-chlorophenyl)-1,3-thiazole-5-carboxylate]

- IC50 (TRPM8 [1]): < 10 µM
SMILES: CCOC(=O)c1sc(-c2ccccc2)nc1OCc1ccc(Cl)cc1 [Compound 27, ethyl 4-[(4-chlorobenzyl)oxy]-2-phenyl-1,3-thiazole-5-carboxylate]

- IC50 (TRPM8 [1]): < 10 µM
SMILES: Cc1ccc(-c2nc(OCc3ccc(Cl)cc3)c(C(=O)O)s2)cc1 [Compound 83, sodium 4-[(4-chlorobenzyl)oxy]-2-(4-methylphenyl)-1,3-thiazole-5-carboxylate]

Further lines, the compound ahead of its results:

SMILES: CCOC(=O)c1sc(-c2ccc(Cl)cc2)nc1OCCN [Compound 41, ethyl 4-(2-aminoethoxy)-2-(4-chlorophenyl)-1,3-thiazole-5-carboxylate]
- IC50 (TRPM8 [1]): < 10 µM

SMILES: CCOC(=O)c1sc(-c2ccc(Cl)cc2)nc1NCCN [Compound 70, ethyl 4-[(2-aminoethyl)amino]-2-(4-chlorophenyl)-1,3-thiazole-5-carboxylate]
- IC50 (TRPM8 [1]): < 10 µM

SMILES: CCOC(=O)c1sc(-c2ccc(Cl)cc2)nc1NCCNC [Compound 68, ethyl 2-(4-chlorophenyl)-4-{[2-(methylamino)ethyl]amino}-1,3-thiazole-5-carboxylate]
- IC50 (TRPM8 [1]): < 10 µM

SMILES: CCn1nnc(-c2sc(-c3cccc(F)c3)nc2O)n1 [Compound 118, 2-(3-fluorophenyl)-5-(2-ethyl-2H-tetrazol-5-yl)-1,3-thiazol-4-ol]
- mechanical allodynia (Male Wistar rats [2]; [5]): significantly attenuated
- inhibition of mechanical allodynia (Male Wistar rats [2]; [6]): no inhibition
- cold allodynia (Male Wistar rats [3]; [5]): significantly attenuated
- inhibition of cold allodynia (Male Wistar rats [3]; [6]): 52 % of inhibition
- inhibition at 1 µM (TRPV1; Test Conc. 1 uM): 1.2%
- inhibition at 10 µM (TRPV1; Test Conc. 10 uM): 2.3%
- inhibition at 1 µM (TRPV4; Test Conc. 1 uM): 2%
- inhibition at 10 µM (TRPV4; Test Conc. 10 uM): 8.9%
- log D values (Log D): low
- antagonist activity in calcium influx assay (TRPM8 [4]): confirmed the antagonist activity

SMILES: Cc1ccc(-c2nc(O)c(C(=O)O)s2)cc1 [Compound 2, 4-hydroxy-2-(4-methylphenyl)-1,3-thiazole-5-carboxylic acid]
- IC50 (TRPM8 [1]): < 10 µM

SMILES: CCOC(=O)c1sc(-c2ccc(C)cc2)nc1NCCN [Compound 67, ethyl 4-[(2-aminoethyl)amino]-2-(4-methylphenyl)-1,3-thiazole-5-carboxylate]
- IC50 (TRPM8 [1]): < 10 µM

SMILES: O=C(O)c1sc(-c2ccc(Cl)cc2)nc1O [Compound 1, 2-(4-chlorophenyl)-4-hydroxy-1,3-thiazole-5-carboxylic acid]
- inhibition of mechanical allodynia (Male Wistar rats [2]; [7]): 26 % of inhibition
- inhibition of cold allodynia (Male Wistar rats [3]; [7]): 39 % of inhibition
- IC50 (TRPM8 [1]): < 10 µM

SMILES: CCOC(=O)c1sc(-c2ccccc2)nc1OC(=O)c1ccc(C(F)(F)F)cc1 [Compound 36, ethyl 2-phenyl-4-{[4-(trifluoromethyl)benzoyl]oxy}-1,3-thiazole-5-carboxylate]
- IC50 (TRPM8 [1]): < 10 µM
